Data published in US20230107642A1 (Erasca, Inc., priority 2020, published 2023).

molecular target: T1, K-Ras G12C (Homo sapiens, UniProt P01116, G12C); assay: CAF assay (% CAF; method in Example 7, not in this part); format: binding; conditions: 10 uM compound, 1 h incubation
T1 construct: This protein contained 188 amino acids in total, including an N-terminal 6-Histidine tag; made in house; host or cells: E. coli BL21

SMILES | % CAF @ 10 uM, 1h [%]
C=CC(=O)N1CCN(c2nc(=O)n3c4c(c(-c5cc(Cl)c(F)cc5F)c(C(F)(F)F)cc24)SC[C@@H]3COCOC)[C@@H](C)C1 (atropisomer, axis not shown) [Example 552, (3S,10R)-7-((S)-4-acryloyl-2-methylpiperazin-1-yl)-10-(5-chloro-2,4-difluorophenyl)-3-((methoxymethoxy)methyl)-9-(trifluoromethyl)-2,3-dihydro-5H-[1,4]thiazino[2,3,4-ij]quinazolin-5-one] | 62.2
C=C(F)C(=O)N1C2CC(=O)CC1CN(c1nc(=O)n3c4c(c(-c5ccc(F)cc5F)c(C(F)(F)F)cc14)SCC3)C2 [Example 418, 10-(2,4-difluorophenyl)-7-(9-(2-fluoroacryloyl)-7-oxo-3,9-diazabicyclo[3.3.1]nonan-3-yl)-9-(trifluoromethyl)-2,3-dihydro-5H-[1,4]thiazino[2,3,4-ij]quinazolin-5-one] | 58

Continued, values first:

% CAF @ 10 uM, 1h [%] | SMILES
72.4 | C=CC(=O)N1CCN(c2nc(=O)n3c4c(c(-c5cc(F)c(F)cc5F)c(C(F)(F)F)cc24)SC[C@@H]3COCOC)[C@@H](C)C1 [Example 522, (3S)-7-((S)-4-acryloyl-2-methylpiperazin-1-yl)-3-((methoxymethoxy)methyl)-9-(trifluoromethyl)-10-(2,4,5-trifluorophenyl)-2H-[1,4]thiazino[2,3,4-ij]quinazolin-5(3H)-one]
28 | C=CC(=O)N1C[C@H](C)N(c2nc(=O)n3c4c(c(-c5cc(Cl)c(F)cc5F)c(Cl)cc24)SC[C@@H]3CN2CCN(C3CC3)CC2)C[C@H]1C [Example 499, (3S)-7-((2S,5R)-4-acryloyl-2,5-dimethylpiperazin-1-yl)-9-chloro-10-(5-chloro-2,4-difluorophenyl)-3-((4-cyclopropylpiperazin-1-yl)methyl)-2H-[1,4]thiazino[2,3,4-ij]quinazolin-5(3H)-one]
79.6 | C=CC(=O)N1CCN(c2nc(=O)n3c4c(c(-c5ccc(F)cc5)c(C(F)(F)F)cc24)SC[C@@H]3CC2CCN(CC(F)F)CC2)[C@@H](C)C1 [Example 428, (S)-7-((S)-4-acryloyl-2-methylpiperazin-1-yl)-3-((1-(2,2-difluoroethyl)piperidin-4-yl)methyl)-10-(4-fluorophenyl)-9-(trifluoromethyl)-2H-[1,4]thiazino[2,3,4-ij]quinazolin-5(3H)-one]
63.5 | C=CC(=O)N1C[C@H](C)N(c2nc(=O)n3c4c(c(-c5ccc(F)cc5F)c(Cl)cc24)SC[C@@H]3CC2CCN(CC(F)F)CC2)C[C@H]1C [Example 477, (3S)-7-((2S,5R)-4-acryloyl-2,5-dimethylpiperazin-1-yl)-9-chloro-3-((1-(2,2-difluoroethyl)piperidin-4-yl)methyl)-10-(2,4-difluorophenyl)-2H-[1,4]thiazino[2,3,4-ij]quinazolin-5(3H)-one]
67.6 | C=CC(=O)N1C[C@H](C)N(c2nc(=O)n3c4c(c(-c5cc(Cl)c(F)cc5F)c(C(F)(F)F)cc24)SC[C@@H]3COCCOC)C[C@H]1C (atropisomer, axis not shown) [Example 555, (3S,10R)-7-((2S,5R)-4-acryloyl-2,5-dimethylpiperazin-1-yl)-10-(5-chloro-2,4-difluorophenyl)-3-((2-methoxyethoxy)methyl)-9-(trifluoromethyl)-2,3-dihydro-5H-[1,4]thiazino[2,3,4-ij]quinazolin-5-one]
40 | C=CC(=O)N1[C@H](C)CN(c2nc(=O)n3c4c(c(-c5ccc(F)cc5F)c(C(F)(F)F)cc24)SC[C@H](N(C)C)C3)C[C@@H]1C [Example 586, (3R)-8-((3S,5R)-4-acryloyl-3,5-dimethylpiperazin-1-yl)-11-(2,4-difluorophenyl)-3-(dimethylamino)-10-(trifluoromethyl)-3,4-dihydro-2H,6H-[1,4]thiazepino[2,3,4-ij]quinazolin-6-one]
69 | C=CC(=O)N1CCN(c2nc(=O)n3c4c(c(-c5cc(F)c(F)cc5F)c(Cl)cc24)SC[C@@H]3CN2CCn3c(nnc3C(F)(F)F)C2)[C@@H](C)C1 [Example 463, (3S)-7-((S)-4-acryloyl-2-methylpiperazin-1-yl)-9-chloro-3-((3-(trifluoromethyl)-5,6-dihydro-[1,2,4]triazolo[4,3-a]pyrazin-7(8H)-yl)methyl)-10-(2,4,5-trifluorophenyl)-2H-[1,4]thiazino[2,3,4-ij]quinazolin-5(3H)-one]
96.1 | C=CC(=O)N1CCN(c2nc(=O)n3c4c(c(-c5ccc(F)cc5F)c(C(F)(F)F)cc24)SC[C@@H]3COC)CC1 [Example 514, (3S)-7-(4-acryloylpiperazin-1-yl)-10-(2,4-difluorophenyl)-3-(methoxymethyl)-9-(trifluoromethyl)-2H-[1,4]thiazino[2,3,4-ij]quinazolin-5(3H)-one]

same assay, conditions: 10 uM, 60 min; Table 2a

% CAF 10 uM @ 60 min [%] | SMILES
87 | C[C@H]1CN(C(=O)/C=C/C(F)F)CCN1c1nc(=O)n2c3c(c(-c4cc(F)cc(F)c4)c(Cl)cc13)SCC2 [Example 67, (S,E)-9-chloro-7-(4-(4,4-difluorobut-2-enoyl)-2-methylpiperazin-1-yl)-10-(3,5-difluorophenyl)-2,3-dihydro-5H-[1,4]thiazino[2,3,4-ij]quinazolin-5-one]

same assay, conditions: 10 uM, 1 h; Table 3

% CAF @ 10 uM, 1h [%] | SMILES
48.9 | C=CC(=O)N1CCN(c2nc(=O)n3c4c(c(-c5cc(Cl)ccc5Cl)c(Cl)cc24)SCC3)[C@@H](C)C1 [Example 171, 7-((S)-4-acryloyl-2-methylpiperazin-1-yl)-9-chloro-10-(2,5-dichlorophenyl)-2,3-dihydro-5H-[1,4]thiazino[2,3,4-ij]quinazolin-5-one]
30.6 | C=CC(=O)N1CCN(c2nc(=O)n3c4c(c(-c5c(O)cccc5F)c(Cl)cc24)SCC3)[C@@H](C)C1 [Example 168, 7-((S)-4-acryloyl-2-methylpiperazin-1-yl)-9-chloro-10-(2-fluoro-6-hydroxyphenyl)-2,3-dihydro-5H-[1,4]thiazino[2,3,4-ij]quinazolin-5-one]
82 | C=CC(=O)N1CCN(c2nc(=O)n3c4c(c(-c5ccc(F)cc5F)c(Cl)cc24)SCC3)C[C@H]1C#N [Example 77, (2S)-1-acryloyl-4-(9-chloro-10-(2,4-difluorophenyl)-5-oxo-2,3-dihydro-5H-[1,4]thiazino[2,3,4-ij]quinazolin-7-yl)piperazine-2-carbonitrile]
28.7 | C=CC(=O)N1CC2CCC1CN2c1nc(=O)n2c3c(c(-c4ccc(F)cc4F)c(Cl)cc13)SCC2 (stereo not shown) [Example 181, 7-(5-acryloyl-2,5-diazabicyclo[2.2.2]octan-2-yl)-9-chloro-10-(2,4-difluorophenyl)-2,3-dihydro-5H-[1,4]thiazino[2,3,4-ij]quinazolin-5-one]
3.6 | CN(C)C/C=C/C(=O)N1CCN(c2nc(=O)n3c4c(c(-c5ccc(F)cc5F)c(Cl)cc24)SCC3)C[C@H]1C#N [Example 121, (2S)-4-(9-chloro-10-(2,4-difluorophenyl)-5-oxo-2,3-dihydro-5H-[1,4]thiazino[2,3,4-ij]quinazolin-7-yl)-1-((E)-4-(dimethylamino)but-2-enoyl)piperazine-2-carbonitrile]
94.4 | C=CC(=O)N1CCN(c2nc(=O)n3c4c(c(-c5ccc(F)cc5F)c(Cl)cc24)SCC3)[C@@H](CC#N)C1 [Example 104, 2-((2S)-4-acryloyl-1-(9-chloro-10-(2,4-difluorophenyl)-5-oxo-2,3-dihydro-5H-[1,4]thiazino[2,3,4-ij]quinazolin-7-yl)piperazin-2-yl)acetonitrile]
79.8 | C=CC(=O)N1CCN(c2nc(=O)n3c4c(c(-c5cc(Cl)ccc5F)c(Cl)cc24)SCC3)[C@@H](C)C1 [Example 175, 7-((S)-4-acryloyl-2-methylpiperazin-1-yl)-9-chloro-10-(5-chloro-2-fluorophenyl)-2,3-dihydro-5H-[1,4]thiazino[2,3,4-ij]quinazolin-5-one]
1 | C=CC(=O)N1C[C@H](C#N)N(c2nc(=O)n3c4c(c(-c5ccc(F)cc5F)c(Cl)cc24)SCC3)C[C@H]1C [Example 161, (2R,5R)-4-acryloyl-1-(9-chloro-10-(2,4-difluorophenyl)-5-oxo-2,3-dihydro-5H-[1,4]thiazino[2,3,4-ij]quinazolin-7-yl)-5-methylpiperazine-2-carbonitrile]
91 | C[C@H]1CN(C(=O)/C=C/C(F)F)CCN1c1nc(=O)n2c3c(c(-c4cc(F)cc(F)c4)c(Cl)cc13)SCC2 [Example 67, (S,E)-9-chloro-7-(4-(4,4-difluorobut-2-enoyl)-2-methylpiperazin-1-yl)-10-(3,5-difluorophenyl)-2,3-dihydro-5H-[1,4]thiazino[2,3,4-ij]quinazolin-5-one]
24 | C=CC(=O)N1CCN(c2nc(=O)n3c4c(c(-c5cccc6ccccc56)c(Cl)cc24)SCC3)[C@@H](C)C1 [Example 154, (R)-7-((S)-4-acryloyl-2-methylpiperazin-1-yl)-9-chloro-10-(naphthalen-1-yl)-2,3-dihydro-5H-[1,4]thiazino[2,3,4-ij]quinazolin-5-one]
85.3 | C=CC(=O)N1CCN(c2nc(=O)n3c4c(c(-c5ccc(F)c(C#N)c5)c(Cl)cc24)SCC3)[C@@H](C)C1 [Example 83, (S)-5-(7-(4-acryloyl-2-methylpiperazin-1-yl)-9-chloro-5-oxo-2,3-dihydro-5H-[1,4]thiazino[2,3,4-ij]quinazolin-10-yl)-2-fluorobenzonitrile]
76.1 | C=CC(=O)N1CCN(c2nc(=O)n3c4c(c(-c5cccc6cnccc56)c(Cl)cc24)SCC3)[C@@H](C)C1 [Example 86, 7-((S)-4-acryloyl-2-methylpiperazin-1-yl)-9-chloro-10-(isoquinolin-5-yl)-2,3-dihydro-5H-[1,4]thiazino[2,3,4-ij]quinazolin-5-one]

SMILES | % CAF @ 10 uM, 1h [%]
C=CC(=O)N1C2COCC1CN(c1nc(=O)n3c4c(c(-c5ccc(F)cc5F)c(Cl)cc14)SCC3)C2 [Example 182, 7-(9-acryloyl-3-oxa-7,9-diazabicyclo[3.3.1]nonan-7-yl)-9-chloro-10-(2,4-difluorophenyl)-2,3-dihydro-5H-[1,4]thiazino[2,3,4-ij]quinazolin-5-one] | 94.4
C=CC(=O)N1C2CN(c3nc(=O)n4c5c(c(-c6ccc(F)cc6F)c(Cl)cc35)SCC4)CC1CN(S(C)(=O)=O)C2 [Example 95, 7-(9-acryloyl-7-(methylsulfonyl)-3,7,9-triazabicyclo[3.3.1]nonan-3-yl)-9-chloro-10-(2,4-difluorophenyl)-2,3-dihydro-5H-[1,4]thiazino[2,3,4-ij]quinazolin-5-one] | 70.5
